# Measurements reported in ChEMBL document CHEMBL1201862, “PubChem BioAssay data set” (2004).
# Active and inactive are the calls of the source.
# Columns and labels:
# [1] = blockers of HIV-1 ZM109 envelope-driven cell-cell fusion – HeLa effector, CEM target cells, luciferase, cherry-pick, dose response (AID 652058); assay type: functional, cell-based;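 also: luciferase signal from HIV-1 Env mediated cell-cell fusion of effector and target cells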
# [2] = HIV-1 AD8 envelope cell-cell fusion blockers – cherry-pick, dose response (AID 652062); assay type: functional, cell-based;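 also: luciferase signal from cell-cell fusion driven by HIV-1 clade B AD8 Env; potency is for inhibitors of fusion seen as a drop in luminescence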
# [3] = blockers of HIV-1 envelope-mediated cell-cell fusion – cherry-pick, dose response (AID 652057); assay type: functional, cell-based
# [4] = off-target signal loss in HeLa-CEM21 co-culture – HeLa F-luc CTL cells, cherry-picked, counter-screen for HIV-1 Env fusion inhibitor project, dose response (AID 652040); assay type: functional, cell-based;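 also: potency for signal decrease marking cytotoxic or nonspecific inhibition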
# Genome polyprotein = Genome polyprotein (dengue virus type 2, UniProt P29990); test: flavivirus cap methylation enzyme inhibition – biochemical, confirmation dose response, primary screen (AID 588689); assay type: functional
# Fatty acid synthase [5] = biological target: T1, Fatty acid synthase (Homo sapiens, UniProt P49327); test: inhibition of human FAS-TE enzyme activity – biochemical, kinetic fluorescence intensity, dose response (AID 624326); assay type: functional;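 also: rate of fluorescence rise from hydrolysis of a fluorogenic O-methyl fluorescein ester substrate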
# Fatty acid synthase [6] = biological target: T1, Fatty acid synthase; test: inhibition of human FAS-TE enzyme activity – biochemical, endpoint fluorescence intensity, uHTS hits, dose response (AID 624327); assay type: functional;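 also: fluorescence from hydrolysis of an O-methyl fluorescein acyl ester substrate by the enzyme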
# [7] = biological target: T2, Corticotropin-releasing factor receptor 2/Corticotropin-releasing factor-binding protein (Homo sapiens, UniProt P24387+Q13324); test: activators of CRF receptor 2 with binding protein – uHTS hits, confirmation (AID 602473); assay type: functional; conditions: read-out: EC50_Mean
# T2 sequence (Q13324 whole entry): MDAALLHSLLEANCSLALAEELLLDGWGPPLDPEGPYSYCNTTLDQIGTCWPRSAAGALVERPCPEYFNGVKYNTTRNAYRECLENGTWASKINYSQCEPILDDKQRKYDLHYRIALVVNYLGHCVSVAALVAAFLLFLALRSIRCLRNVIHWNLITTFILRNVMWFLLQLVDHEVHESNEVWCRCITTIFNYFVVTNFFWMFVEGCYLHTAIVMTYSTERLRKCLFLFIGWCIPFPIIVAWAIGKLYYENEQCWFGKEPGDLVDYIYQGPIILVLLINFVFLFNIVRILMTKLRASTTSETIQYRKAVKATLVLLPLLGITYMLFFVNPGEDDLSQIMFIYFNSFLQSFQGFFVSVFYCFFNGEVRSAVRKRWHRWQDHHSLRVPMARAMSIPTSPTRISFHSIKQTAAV
# T2 sequence (P24387 whole entry): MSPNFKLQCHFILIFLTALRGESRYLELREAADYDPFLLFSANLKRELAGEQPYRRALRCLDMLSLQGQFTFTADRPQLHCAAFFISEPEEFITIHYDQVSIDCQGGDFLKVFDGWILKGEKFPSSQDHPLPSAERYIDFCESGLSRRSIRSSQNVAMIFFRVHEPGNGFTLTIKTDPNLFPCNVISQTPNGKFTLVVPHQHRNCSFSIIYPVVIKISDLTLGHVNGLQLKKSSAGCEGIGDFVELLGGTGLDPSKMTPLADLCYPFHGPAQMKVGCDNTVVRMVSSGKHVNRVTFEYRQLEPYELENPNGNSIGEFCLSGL
# [8] = Luminescence Cell-Based Dose Retest to Confirm Inhibitors of Cancer Stem Cells. [Related pubchem assays (depositor defined):AID2717, AID2721]; assay type: functional; conditions: Homo sapiens
# [9] = biological target: T3, Ubiquitin-conjugating enzyme E2 N (Homo sapiens, UniProt P61088); assay type: functional;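 also: Dose-response confirmation in a TR-FRET assay detecting UBC13-driven polyubiquitin chain formation, inhibition measured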
# T3 sequence (P61088 whole entry): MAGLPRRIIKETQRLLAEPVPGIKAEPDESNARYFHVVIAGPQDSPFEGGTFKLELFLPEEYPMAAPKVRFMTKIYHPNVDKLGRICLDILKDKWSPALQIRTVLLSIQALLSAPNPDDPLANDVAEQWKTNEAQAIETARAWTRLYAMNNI
# [10] = alpha-synuclein stem-loop luciferase translation blockers – H4 neuroglioma cells, luminescence, confirmation (AID 1988); assay type: functional, cell-based
# [11] = luciferase reporter signal suppression in cells – H4 neuroglioma cells, luminescence, dose response (AID 1990); assay type: functional, cell-based
# [12] = Luminescence Cell-Based Dose Response HTS to Identify Inhibitors of 5'UTR Stem-Loop Driven Prion Protein mRNA Translation in H4 Neuroglioblastoma Cells. [Related pubchem assays: 1827 (Project Summary), 1813 (Primary HTS)]; assay type: functional
# [13] = Trypanosoma cruzi growth suppression in host cells – NIH3T3 host cells, beta-gal luminescence, confirmation (AID 2044); assay type: functional, cell-based;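 also: intracellular parasites grown in NIH/3T3 mouse fibroblasts as host cells; luminescent beta-galactosidase reporter signal from transgenic T. cruzi replicating inside host cells; inhibitors lower the luminescence signal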
# [14] = fluconazole-exposed Candida albicans growth modulators – fluorescence, retest, confirmation (AID 2467); assay type: functional, cell-based
# [15] = NIH3T3 cell viability loss – ATP luminescence, mouse fibroblasts, counter-screen, dose response (AID 2010); assay type: functional, cell-based;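 also: cells exposed to compound for about 90 hours before reading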
# [16] = NIH-3T3 fibroblast cytotoxicity, dose response, cytotoxicity control, cell-based, fluorescence, Alamar Blue, secondary assay (AID 2327); assay type: functional;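 also: NIH-3T3 mouse fibroblasts cultured with fluconazole at 8 µg/mL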
# [17] = reduction of Shn3 3'UTR-driven luciferase in osteoblasts – cell-based, Clone20 osteoblasts, firefly luciferase, cherry-picked, dose response (AID 624132); assay type: functional;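 also: firefly luciferase luminescence from reporter carrying the Shn3 3'UTR in osteoblasts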
# [18] = biological target: T4, Replicative DNA helicase DnaB (Mycobacterium tuberculosis, UniProt P9WMR3); test: DnaB intein splicing inhibitors, dose response, biochemical, cell-free fluorescence (AID 449749); assay type: functional
# T4 sequence (P9WMR3 whole entry): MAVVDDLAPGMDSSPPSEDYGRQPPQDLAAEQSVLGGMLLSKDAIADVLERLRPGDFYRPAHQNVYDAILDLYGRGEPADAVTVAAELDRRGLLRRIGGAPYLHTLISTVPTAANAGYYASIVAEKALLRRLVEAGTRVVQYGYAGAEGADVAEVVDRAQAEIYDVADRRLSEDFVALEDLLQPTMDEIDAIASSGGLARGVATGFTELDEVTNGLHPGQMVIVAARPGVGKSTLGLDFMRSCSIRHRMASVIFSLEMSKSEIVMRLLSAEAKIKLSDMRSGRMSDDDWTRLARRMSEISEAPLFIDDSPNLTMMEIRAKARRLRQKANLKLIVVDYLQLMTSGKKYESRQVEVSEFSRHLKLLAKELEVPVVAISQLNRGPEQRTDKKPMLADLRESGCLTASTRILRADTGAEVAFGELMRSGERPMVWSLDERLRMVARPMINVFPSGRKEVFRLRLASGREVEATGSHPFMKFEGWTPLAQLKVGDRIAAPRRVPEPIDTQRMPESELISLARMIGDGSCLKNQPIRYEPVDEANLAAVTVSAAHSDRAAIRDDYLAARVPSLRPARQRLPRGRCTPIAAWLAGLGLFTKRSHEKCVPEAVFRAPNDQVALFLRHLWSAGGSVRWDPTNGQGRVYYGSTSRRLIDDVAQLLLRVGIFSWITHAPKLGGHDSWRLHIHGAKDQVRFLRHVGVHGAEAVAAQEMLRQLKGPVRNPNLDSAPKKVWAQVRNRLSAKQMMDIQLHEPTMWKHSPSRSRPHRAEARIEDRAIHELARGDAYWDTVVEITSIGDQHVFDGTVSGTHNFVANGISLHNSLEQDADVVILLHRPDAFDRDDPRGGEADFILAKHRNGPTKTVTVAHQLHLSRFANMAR
# Protein RecA = biological target: T5, Protein RecA (Mycobacterium tuberculosis, UniProt P9WHJ3); test: Fluorescence Cell-Free Homogeneous Dose Retest to Identify Inhibitors of RecA-Intein Splicing Activity. [Related pubchem assays (depositor defined):AID2097, AID2223, AID489010, AID492950]; assay type: functional
# T5 sequence (P9WHJ3 whole entry): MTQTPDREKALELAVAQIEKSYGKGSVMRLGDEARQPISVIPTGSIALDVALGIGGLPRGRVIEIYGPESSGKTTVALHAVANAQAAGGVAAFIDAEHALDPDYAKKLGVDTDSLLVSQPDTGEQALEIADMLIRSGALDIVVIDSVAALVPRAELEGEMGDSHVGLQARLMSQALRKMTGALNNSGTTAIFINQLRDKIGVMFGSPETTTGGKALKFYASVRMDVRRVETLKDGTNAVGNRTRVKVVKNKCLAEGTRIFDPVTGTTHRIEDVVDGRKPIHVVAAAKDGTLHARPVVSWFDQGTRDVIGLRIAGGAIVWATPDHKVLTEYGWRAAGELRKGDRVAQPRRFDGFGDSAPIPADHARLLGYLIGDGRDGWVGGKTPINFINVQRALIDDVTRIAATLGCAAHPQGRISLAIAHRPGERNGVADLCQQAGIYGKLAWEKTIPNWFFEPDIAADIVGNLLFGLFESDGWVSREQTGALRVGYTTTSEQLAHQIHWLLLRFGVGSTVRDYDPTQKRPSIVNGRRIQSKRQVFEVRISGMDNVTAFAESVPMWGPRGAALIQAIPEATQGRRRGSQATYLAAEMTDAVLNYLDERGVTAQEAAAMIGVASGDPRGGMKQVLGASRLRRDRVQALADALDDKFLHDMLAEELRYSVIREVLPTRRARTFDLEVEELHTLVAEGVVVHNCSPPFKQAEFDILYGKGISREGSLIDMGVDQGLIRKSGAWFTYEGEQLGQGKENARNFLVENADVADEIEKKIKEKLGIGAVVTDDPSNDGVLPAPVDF
structure (smiles),measurement,setting,value
CCc1cccc(NC(=O)C2CCN(S(=O)(=O)c3ccc4c(c3)CC(C)N4C(C)=O)CC2)c1 (centres undefined),AC50,[1],6.68 µM (active)
same,AC50,[2],10.6 µM (active)
same,AC50,[3],30.3 µM (active)
same,AC50,[4],48.5 µM (active)
O=C(Nc1cc(S(=O)(=O)N2CCOCC2)ccc1O)c1ccc2c(c1)S(=O)(=O)c1ccccc1C2=O,IC50,Genome polyprotein,49.6 µM (active)
COc1ccc(C(CC(=O)Nc2cc([N+](=O)[O-])ccc2OC)c2ccccc2)cc1 (centres undefined),IC50,Fatty acid synthase [5],12.5 µM (active)
same,IC50,Fatty acid synthase [6],12.9 µM (active)
COc1ccc(/C=C2/C(=O)NC(=O)N(c3ccc(C)c(C)c3)C2=O)cc1CN1C(=O)c2ccccc2C1=O,IC50,Genome polyprotein,99.5 µM (active)
Cc1cc(-n2c(C)cc(C(=O)CSc3nc4ccccc4c(=O)n3Cc3ccco3)c2C)no1,EC50,[7],> 53 µM (inactive)
CCN1C(=O)[C@H]2[C@@H](c3ccc(C)cc3)N3C(=O)N(c4cccc(Br)c4)C(=O)[C@@]3(CC(C)C)[C@H]2C1=O,AC50,[1],0.374 µM (active)
same,AC50,[2],0.672 µM (active)
same,AC50,[3],0.26 µM (active)
same,AC50,[4],0.382 µM (active)
CC(C)(C)C1CCC(CN2C(Nc3ccccc3)=NC[C@@H]2Cc2ccccc2)CC1 (some centres undefined),AC50,[8],6.47 µM (active)
same,IC50,[9],> 20 µM (inactive)
Cc1cccc(NC(=O)CSc2nc3c(oc4ccccc43)c(=O)n2-c2ccccc2)c1,IC50,Fatty acid synthase [5],51.3 µM (inactive)
same,IC50,Fatty acid synthase [6],25.6 µM (inactive)
COc1ccc(S(=O)(=O)Nc2ccc3c(c2)CC(=O)N([C@H](C)CO)C[C@H](C)[C@H](CN(C)S(=O)(=O)c2ccc(F)cc2)O3)cc1,AC50,[2],10.6 µM (active)
same,AC50,[3],0.384 µM (active)
O=C(C1CCCCC1)N1CCCC(c2nc(O)c3nnn(Cc4ccccc4)c3n2)C1 (centres undefined),AC50,[1],18.5 µM (active)
same,AC50,[3],11.1 µM (active)
same,AC50,[4],> 70 µM (inactive)
Cc1ccc(C(=O)NCCSC(C)(C)C)cc1[N+](=O)[O-],IC50,Fatty acid synthase [5],8.25 µM (active)
same,IC50,Fatty acid synthase [6],11.7 µM (active)
CCOC(=O)c1cc(-c2ccc(OC)cc2F)nc2c1c(C)nn2CCC#N,EC50,[10],23.3 µM (active)
same,EC50,[11],17.7 µM (active)
same,IC50,[9],> 20 µM (inactive)
same,EC50,[12],20.2 µM (active)
O=C(/C=C/c1cccc([N+](=O)[O-])c1)NCCSCc1ccco1,IC50,Fatty acid synthase [5],10.1 µM (active)
same,IC50,Fatty acid synthase [6],6.86 µM (active)
Cc1ccc(-n2nc3c(c2NC(=O)c2ccco2)C[S+]([O-])C3)cc1 (centres undefined),AC50,[4],7.72 µM (active)
CCNC(=O)c1ccccc1NC(=O)c1cccc(S(=O)(=O)N2CCC(C)CC2)c1,IC50,[9],> 20 µM (inactive)
CC[C@H](C)Cc1cn([C@@H](CCCN=C(NC(=O)OC(C)(C)C)NC(=O)OC(C)(C)C)C(=O)NCCCCCCCCCCC(=O)N2CCN(C(=O)OC(C)(C)C)CC2)nn1,EC50,[13],1.04 µM (active)
same,IC50,[9],> 20 µM (inactive)
same,EC50,[14],> 38 µM (not active)
same,EC50,[15],> 30 µM (not active)
same,EC50,[16],83.3 µM (inconclusive)
CC(=O)c1ccc(OCCCC(=O)NNC(=O)c2ccccn2)cc1,IC50,[9],> 20 µM (inactive)
Sc1nnc(COc2cccc3ccccc23)n1Cc1ccccc1,AC50,[17],48 µM (active)
O=C1C(Cl)=C(N2CCCC2)C(=O)N1c1ccccc1F,IC50,Genome polyprotein,84.4 µM (active)
Cc1ccccc1N1C(=O)C(Cl)=C(N2CCOCC2)C1=O,IC50,Genome polyprotein,43.7 µM (active)
same,AC50,[18],13 µM (active)
same,EC50,Protein RecA,4.98 µM (active)
O=C(O)CCc1ccc(-c2ccc(Br)cc2)n1-c1ccc(O)cc1,IC50,Genome polyprotein,> 100 µM (active)
Cc1cc(N2CCCCC2)nc(N)n1,EC50,[7],6.28 µM (active)
COc1ccc(C(C2C(=O)CC(C)(C)CC2=O)C2C(=O)CC(C)(C)CC2=O)cc1,IC50,Genome polyprotein,30.4 µM (active)
COC(=O)[C@@]12CCCN1[C@H](c1ccc(-c3ccc(F)cc3)c(OC)c1)[C@H]1C(=O)N(C)C(=O)[C@H]12,AC50,[1],1.38 µM (active)
same,AC50,[2],25.5 µM (active)
same,AC50,[3],2.93 µM (active)
